Source: patent EP0183129A1, “Quinolonecarboxylic acid derivatives” (KYORIN PHARMACEUTICAL CO., LTD., priority 1984, dated 1986)
In brackets after ≈: the same amount, converted by molar mass. Structures can show the parent of a compound that is named as a salt. Where two headings read alike, the source gives them in different places.

Assays:
S. pneumoniae 28 = experiment: In vitro antibacterial activity, MIC (clinical isolates); assay type: cell-based; conditions: Streptococcus pneumoniae, 10^6 cells/ml, clinical isolate
C. difficile I-E = experiment: In vitro antibacterial activity, MIC (standard strain); assay type: cell-based; conditions: Clostridioides difficile; C. difficile I-E; 10^6 cells/ml; standard strain; read-out: MIC
M. pneumoniae Mac. = experiment: In vitro antibacterial activity against Mycoplasma, MIC; assay type: cell-based; conditions: Mycoplasmoides pneumoniae, 120 h; M. pneumoniae Mac.; no visible growth after incubation for 5 days; read-out: MIC
Source text: Experiment-3 In vitro antibacterial activity against Mycoplasma

[1] = Urinary and bile excretion after oral administration, bioassay by cup method; assay type: in vivo; conditions: rat, fasted rats, 10 mg/kg oral, Mean ± S.D. (n=5)
[2] = Absorption and distribution: concentration in blood and organs after oral administration, bioassay by cup method; assay type: in vivo; conditions: rat, rats, fasted, 10 mg/kg oral, Mean ± S.D. (n=5); for concentration at 0.5 h: 1/2 hr after administration; for concentration at 1 h: 1 hr after administration; for concentration at 2 h: 2 hr after administration; for concentration at 4 h: 4 hr after administration; for concentration at 6 h: 6 hr after administration; for concentration at 8 h: 8 hr after administration
[3] = bile 0 ~ 3 hr, read-out: Concentration, bile
[4] = bile 0 ~ 3 hr, read-out: Recovery, bile
[5] = bile 0 ~ 6 hr, read-out: Recovery, bile
[6] = bile 0 ~ 24 hr, read-out: Recovery, bile
[7] = bile 3 ~ 6 hr, read-out: Concentration, bile
[8] = bile 6 ~ 24 hr, read-out: Concentration, bile
[9] = urine 0 ~ 3 hr, read-out: Concentration, urine
[10] = urine 0 ~ 3 hr, read-out: Recovery, urine
[11] = urine 0 ~ 6 hr, read-out: Recovery, urine
[12] = urine 0 ~ 24 hr, read-out: Recovery, urine
[13] = urine 3 ~ 6 hr, read-out: Concentration, urine
[14] = urine 6 ~ 24 hr, read-out: Concentration, urine
[15] = kidney, read-out: Concentration in organs: Kidney
[16] = liver, read-out: Concentration in organs: Liver
[17] = lung, read-out: Concentration in organs: Lung
[18] = serum, read-out: Concentration in organs: Serum

NCC1CCN(c2c(F)cc3c(=O)c(C(=O)O)cn(C4CC4)c3c2F)C1 (stereo not drawn) [Example 1, 7-(3-Aminomethyl-l-pyrrolidinyl)-l-cyclopropyl-6,8-difluoro-1,4-dihydro-4-oxo-3-quinolinecarboxylic acid hydrochloride]
MIC (S. pneumoniae 28): 0.05 µg/mL
MIC (C. difficile I-E): 1.56 µg/mL

CCNCC1CCN(c2c(F)cc3c(=O)c(C(=O)O)cn(C4CC4)c3c2F)C1 (stereo not drawn) [Example 2, l-Cyclopropyl-7-(3-ethylaminomethyl-l-pyrrolidinyl)-6,8-difluoro-l,4-dihydro-4-oxo-3-quinolinecarboxylic acid hydrochloride]
MIC (M. pneumoniae Mac.): 0.05 µg/mL
MIC (S. pneumoniae 28): 0.05 µg/mL
concentration at 3 h [1, 3]: 17100 ± 10000 ng/mL
dose excreted at 3 h [1, 4]: 2.4 ± 1.6%
dose excreted at 6 h [1, 5]: 4.3 ± 2.1%
dose excreted at 24 h [1, 6]: 9.7 ± 3.1%
concentration at 6 h [1, 7]: 16100 ± 6200 ng/mL
concentration at 24 h [1, 8]: 10100 ± 2300 ng/mL
concentration at 3 h [1, 9]: 44200 ± 27900 ng/mL
dose excreted at 3 h [1, 10]: 3.5 ± 2%
dose excreted at 6 h [1, 11]: 6.7 ± 4.3%
dose excreted at 24 h [1, 12]: 13.5 ± 4.6%
concentration at 6 h [1, 13]: 115000 ± 61000 ng/mL
concentration at 24 h [1, 14]: 22100 ± 9800 ng/mL
concentration at 0.5 h [2, 15]: 8500 ± 310 ng/g
concentration at 1 h [2, 15]: 6720 ± 540 ng/g
concentration at 2 h [2, 15]: 4660 ± 300 ng/g
concentration at 4 h [2, 15]: 2620 ± 590 ng/g
concentration at 6 h [2, 15]: 1860 ± 110 ng/g
concentration at 8 h [2, 15]: 980 ± 220 ng/g
concentration at 0.5 h [2, 16]: 9480 ± 440 ng/g
concentration at 1 h [2, 16]: 6240 ± 530 ng/g
concentration at 2 h [2, 16]: 4320 ± 430 ng/g
concentration at 4 h [2, 16]: 2360 ± 480 ng/g
concentration at 6 h [2, 16]: 1620 ± 290 ng/g
concentration at 8 h [2, 16]: 820 ± 190 ng/g
concentration at 0.5 h [2, 17]: 3840 ± 420 ng/g
concentration at 1 h [2, 17]: 2940 ± 220 ng/g
concentration at 2 h [2, 17]: 1920 ± 330 ng/g
concentration at 4 h [2, 17]: 1120 ± 310 ng/g
concentration at 6 h [2, 17]: 780 ± 190 ng/g
concentration at 8 h [2, 17]: 380 ± 80 ng/g
concentration at 0.5 h [2, 18]: 1470 ± 190 ng/mL
concentration at 1 h [2, 18]: 1300 ± 200 ng/mL
concentration at 2 h [2, 18]: 900 ± 190 ng/mL
concentration at 4 h [2, 18]: 420 ± 150 ng/mL
concentration at 6 h [2, 18]: 260 ± 90 ng/mL
concentration at 8 h [2, 18]: 120 ± 40 ng/mL
MIC (C. difficile I-E): 0.78 µg/mL

CCNCC1CCN(c2cc3c(cc2F)c(=O)c(C(=O)O)cn3C2CC2)C1.Cl (stereo not drawn) [Example 7, 1-Cyclopropyl-7-(3-ethylaminomethyl-1-pyrrolidinyl)-6-fluoro-1,4-dihydro-4-oxo-3-quinolinecarboxylic acid hydrochloride]
MIC (C. difficile I-E): 12.5 µg/mL

CNCC1CCN(c2c(F)cc3c(=O)c(C(=O)O)cn(C4CC4)c3c2F)C1 (stereo not drawn) [Example 8, 1-Cyclopropyl-6,8-difluoro-1,4-dihydro-7-(3-methylaminomethyl-l-pyrrolidinyl)-4-oxo-3-quinolinecarboxylic acid hydrochloride]
MIC (M. pneumoniae Mac.): 0.05 µg/mL
MIC (S. pneumoniae 28): 0.05 µg/mL
MIC (C. difficile I-E): 1.56 µg/mL

CNCC1CCN(c2cc3c(cc2F)c(=O)c(C(=O)O)cn3C2CC2)C1 (stereo not drawn) [Example 9, 1-Cyclopropyl-6-fluoro-1,4-dihydro-7-(3-methylaminomethyl-l-pyrrolidinyl)-4-oxo-3-quinolinecarboxylic acid hydrochloride]
MIC (C. difficile I-E): 12.5 µg/mL

CCCNCC1CCN(c2c(F)cc3c(=O)c(C(=O)O)cn(C4CC4)c3c2F)C1 (stereo not drawn) [Example 10, 1-Cyclopropyl-6,8-difluoro-1,4-dihydro-4-oxo-7-(3-n-propylaminomethyl-l-pyrrolidinyl)-3-quinolinecarboxylic acid hydrochloride]
MIC (C. difficile I-E): 6.25 µg/mL

CC(C)NCC1CCN(c2c(F)cc3c(=O)c(C(=O)O)cn(C4CC4)c3c2F)C1.Cl (stereo not drawn) [Example 11, 1-Cyclopropyl-6,8-difluoro-1,4-dihydro-7-(3-isopropylaminomethyl-1-pyrrolidinyl)-4-oxo-3-quinolinecarboxylic acid hydrochloride]
MIC (C. difficile I-E): 3.13 µg/mL

CNCC1CCN(c2c(F)cc3c(=O)c(C(=O)O)cn(C4CC4)c3c2Cl)C1 (stereo not drawn) [Example 12, 8-Chloro-l-cyclopropyl-6-fluoro-1,4-dihydro-7-(3-methylaminomethyl-1-pyrrolidinyl)-4-oxo-3-quinolinecarboxylic acid hydrochloride]
MIC (M. pneumoniae Mac.): 0.05 µg/mL
MIC (S. pneumoniae 28): 0.05 µg/mL

CCNCC1CCN(c2c(F)cc3c(=O)c(C(=O)O)cn(C4CC4)c3c2Cl)C1 (stereo not drawn) [Example 13, 8-Chloro-l-cyclorpropyl-6-fluoro-1,4-dihydro-7-(3-ethylaminomethyl-l-pyrrolidinyl)-4-oxo-3-quinolinecarboxylic acid]
MIC (M. pneumoniae Mac.): 0.05 µg/mL (≈ 0.123 µM)
MIC (S. pneumoniae 28): 0.05 µg/mL (≈ 0.123 µM)
concentration at 3 h [1, 3]: 36400 ± 9900 ng/mL
dose excreted at 3 h [1, 4]: 4.9 ± 1.5%
dose excreted at 6 h [1, 5]: 6.9 ± 1.4%
dose excreted at 24 h [1, 6]: 12.9 ± 4.9%
concentration at 6 h [1, 7]: 19700 ± 8000 ng/mL
concentration at 24 h [1, 8]: 11300 ± 8300 ng/mL
concentration at 3 h [1, 9]: 36100 ± 9200 ng/mL
dose excreted at 3 h [1, 10]: 2.7 ± 2.1%
dose excreted at 6 h [1, 11]: 4.8 ± 1.8%
dose excreted at 24 h [1, 12]: 7.4 ± 1.5%
concentration at 6 h [1, 13]: 39400 ± 13300 ng/mL
concentration at 24 h [1, 14]: 7600 ± 3600 ng/mL
concentration at 0.5 h [2, 15]: 5630 ± 640 ng/g
concentration at 1 h [2, 15]: 4700 ± 600 ng/g
concentration at 2 h [2, 15]: 2810 ± 250 ng/g
concentration at 4 h [2, 15]: 1470 ± 250 ng/g
concentration at 6 h [2, 15]: 840 ± 90 ng/g
concentration at 8 h [2, 15]: 890 ± 400 ng/g
concentration at 0.5 h [2, 16]: 7780 ± 910 ng/g
concentration at 1 h [2, 16]: 5710 ± 630 ng/g
concentration at 2 h [2, 16]: 3140 ± 360 ng/g
concentration at 4 h [2, 16]: 1340 ± 120 ng/g
concentration at 6 h [2, 16]: 860 ± 150 ng/g
concentration at 8 h [2, 16]: 1130 ± 520 ng/g
concentration at 0.5 h [2, 17]: 3170 ± 710 ng/g
concentration at 1 h [2, 17]: 2660 ± 420 ng/g
concentration at 2 h [2, 17]: 1540 ± 210 ng/g
concentration at 4 h [2, 17]: 700 ± 80 ng/g
concentration at 6 h [2, 17]: 420 ± 50 ng/g
concentration at 8 h [2, 17]: 450 ± 150 ng/g
concentration at 0.5 h [2, 18]: 1720 ± 370 ng/mL
concentration at 1 h [2, 18]: 1120 ± 300 ng/mL
concentration at 2 h [2, 18]: 570 ± 80 ng/mL
concentration at 4 h [2, 18]: 230 ± 40 ng/mL
concentration at 6 h [2, 18]: 100 ± 10 ng/mL
concentration at 8 h [2, 18]: 140 ± 80 ng/mL

NCC1CCN(c2c(F)cc3c(=O)c(C(=O)O)cn(C4CC4)c3c2Cl)C1 (stereo not drawn) [Example 14, 8-Chloro-l-cyclopropyl-6-fluoro-l,4-dihydro-7-(3-aminomethyl-l-pyrrolidinyl)-4-oxo-3-quinolinecarboxylic acid hydrochloride]
MIC (S. pneumoniae 28): 0.05 µg/mL

CCn1cc(C(=O)O)c(=O)c2cc(F)c(N3CCNCC3)cc21 [NFLX, Norfloxacin, reference compound]
MIC (M. pneumoniae Mac.): 3.13 µg/mL (≈ 9.8 µM)
MIC (S. pneumoniae 28): 6.25 µg/mL (≈ 19.6 µM)
MIC (C. difficile I-E): 50 µg/mL (≈ 157 µM)

CCNCC1CCN(c2c(F)cc3c(=O)c(C(=O)O)cn(CC)c3c2F)C1 (stereo not drawn) [Ref.1, 1-Ethyl-7-(3-ethylaminomethyl-1-pyrrolidinyl)-6,8-difluoro-1,4-dihydro-4-oxo-3-quinolinecarboxylic acid, reference compound]
MIC (M. pneumoniae Mac.): 0.39 µg/mL (≈ 1.03 µM)
